# Literature values as cited in article PMC9881854 (bioRxiv, 2023).
# System: mTOR
compound,measurement,value
CO[C@H]1C[C@@H]2CC[C@@H](C)[C@@](O)(O2)C(=O)C(=O)N2CCCC[C@H]2C(=O)O[C@H]([C@H](C)C[C@@H]2CC[C@@H](O)[C@H](OC)C2)CC(=O)[C@H](C)/C=C(\C)[C@@H](O)[C@@H](OC)C(=O)[C@H](C)C[C@H](C)/C=C/C=C/C=C/1C [rapamycin],binding of rapamycin by itself to mTOR,weak micromolar binder
